This note sets out measurements from PubChem BioAssay AID179 (DTP/NCI, 2004).

For the experiment, the system named is CEM cells HIV-1 protection, formazan growth assay. Kind of experiment: NCI AIDS Antiviral Assay. As to conditions: for IC50: measured here: growth of uninfected CEM cells. In a few lines:
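Category rules: moderately active means at least 50% protection on retest, and confirmed active means 100% protection reproducibly. The underlying data came from a formazan growth assay in HIV-1-infected CEM cells.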

Structures are written as SMILES. The source made the active and inactive calls.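 How the source made its calls: active means compounds giving half or more protection of infected cells from virus-caused growth loss, again on retest; inactive means the rest.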 Where a SMILES comes first, the peptide text is derived from it.

For the compound `N#Cc1c(N)n(-c2nc3ccccc3s2)c(=O)c2cc([N+](=O)[O-])ccc12`, the EC50 is more than 100 µM and the IC50 came out at 12 µM.
The like results for `CN(O)C(=O)Cc1ccccc1` were, in that order, more than 15.1 µM and more than 15.1 µM.
As to `N#C/C(=C\c1ccc(O)c(O)c1)C(=O)NCCCCNC(=O)/C(C#N)=C/c1ccc(O)c(O)c1`, the EC50 was more than 200 µM and the IC50 came to 24 µM.
On to `COc1ccc(C(=O)N=C2N(c3ccccc3)C(=Nc3ccccc3)C(=Nc3ccccc3)N2c2ccccc2)cc1`, for which the EC50 is more than 200 µM and the IC50 turned out to be 8.32 µM.
As for `Cn1c(O)c(N=NC(N)=S)c2ccccc21`, the EC50 is more than 200 µM, the result was inactive and the IC50 turned out to be 186 µM.
With `C(=C/c1ccnc2ccccc12)/c1cccs1`, the EC50 was 0.0631 µM and the IC50 was 47.9 µM.
As for `O=C(c1nc2cc([N+](=O)[O-])ccc2[nH]c1=O)C(O)c1ccco1` (stereo unspecified), the EC50 was more than 200 µM and the half-maximal inhibitory concentration (IC50) is 61.7 µM.
In the case of `NC1CC(=O)c2c(Br)csc21` (stereo unspecified), the EC50 was more than 200 µM and the IC50 worked out at 50.1 µM.
The like results for `CCOC(=O)c1c(NC(=O)c2cccs2)sc2c1CCCC2` were, in that order, more than 151 µM and more than 151 µM.
For `Cc1ccc(SC(=O)N2C(=S)NC(=NC3CCCCC3)C23CCCCC3)cc1`, the EC50 was more than 200 µM and the IC50 turned out to be 32.4 µM.
As to `c1cnc2c3cnc4sccc4c3nn2c1`, the EC50 was more than 74.1 µM and the IC50 is more than 74.1 µM.
With `CCCCc1ccc(Nc2nc3c(ncn3COCCO)c(=O)[nH]2)cc1`, the EC50 was more than 200 µM and the IC50 is more than 200 µM.
Take `COc1ccc(Nc2nc3ccccc3nc2C(=O)O)cc1OC`: the EC50 is more than 200 µM and the IC50 turned out to be 85.1 µM.
As for `O=c1[nH]cnc2c1ncn2[C@H]1CO[C@@H](CO)[C@@H]1O`, the EC50 was more than 100 µM and the IC50 is more than 100 µM.
Consider `C1CSCCSCCCS[C@@H]2CCCCC2SC1` (stereo partly specified), for which the EC50 was more than 100 µM and the IC50 is more than 100 µM.
Turning to `CCCCc1ccc(Nc2ncc3[nH]cnc3n2)cc1`, the EC50 is more than 200 µM and the IC50 worked out at 29.5 µM.
Turning to `O=C(CSc1nnc(-c2ccc(N=Cc3ccc(Cl)cc3)cc2)o1)Nc1ccccc1Cl`, the EC50 was more than 269 µM and the IC50 was more than 269 µM.
As for `COC(=O)C(C(=O)C(=O)Nc1cccc(OC)c1)c1cnc2ccccc2n1` (stereo unspecified), the EC50 was more than 69.2 µM and the IC50 was more than 69.2 µM.
In the case of `COC(=O)/C=C\C(=O)/C=C/COC(=O)c1ccccc1`, the EC50 is more than 132 µM and the IC50 was determined as 20.9 µM.
With `COc1cccc(NC(=S)/C(=C(/[O-])c2ccc(C)cc2)[n+]2ccccc2)c1`, the EC50 is more than 200 µM and the IC50 was more than 200 µM.
On to `Clc1ccccc1/C=C1\c2ccccc2-c2nc3ccccc3nc21`, for which the EC50 was more than 200 µM and the IC50 is more than 200 µM.
As to `CCOC(=O)C(CCCC(C(=O)OCC)C(=O)OCC)C(=O)OCC`, the EC50 is more than 200 µM and the IC50 was more than 200 µM.
Regarding `CCOC(=O)C(c1ccccc1)c1cccc(C(C(=O)OCC)c2ccccc2)n1` (stereo unspecified), the EC50 is more than 17.8 µM and the IC50 was more than 17.8 µM.
In the case of `C=CC1(c2ccc(-c3ccccc3)cc2)OCCO1`, the EC50 was more than 200 µM and the IC50 stood at 81.3 µM.
The like results for `O=C1C2=C(CCCCC2)C2CCCCC12O` (stereo unspecified) were, in that order, more than 200 µM and more than 200 µM.
Take `COc1ccc2c(c1)C(=O)CC(C(=O)O)C2` (stereo unspecified): the EC50 was more than 1120 µM and the IC50 was more than 1120 µM.
As to `COC1=CC2(OC)CCC1C1=C2C(=O)c2c(O)cccc2C1=O` (stereo unspecified), the result was inactive.
Consider `[N-]=[N+]=C1CNC(=O)NC1=O`, for which the EC50 was more than 200 µM and the IC50 turned out to be 30.2 µM.
Regarding `COc1ccc(/C(C#N)=C/c2cccc([N+](=O)[O-])c2)cc1`, the EC50 is more than 200 µM and the IC50 is more than 200 µM.
`O=c1c2ccccc2[nH]c(=S)n1-c1cccc(C(F)(F)F)c1`: the EC50 was more than 200 µM and the IC50 is more than 200 µM.
On to `Cc1cn(CC(=O)NCCCO)c(=O)[nH]c1=O`, for which the EC50 is more than 200 µM and the IC50 is more than 200 µM.
For the compound `CCCCN=C(NCCCC)OC1CCCCC1`, the EC50 was more than 200 µM and the IC50 amounted to 64.6 µM.
As for `c1c2c(cc3c1OCN(C1CC1)C3)OCN(C1CC1)C2`, the EC50 is more than 51.3 µM and the IC50 was 4.27 µM.
Turning to `Cc1ccccc1NC(=O)/C=N/O`, the result was inactive.
Consider `CC(O)CNC1=CC(=O)C(=O)c2ccccc21` (stereo unspecified), for which the EC50 is more than 200 µM and the IC50 came to 28.8 µM.
Turning to `C=CC1(CC)/C(=N\O)C(CC)(CC)C(=O)N1O` (stereo unspecified), the EC50 is more than 1050 µM and the IC50 was more than 1050 µM.
As to `CN=C(n1ccnc1)n1ccnc1`, the EC50 was more than 200 µM and the IC50 was more than 200 µM.
`C=CCc1c(O)c2nsnc2c2nsnc12`: the EC50 is more than 200 µM and the IC50 is more than 200 µM.
In the case of `COC(=O)c1cc(CN(C)C)c(O)c(CN(C)C)c1`, the EC50 was more than 200 µM and the IC50 is more than 200 µM.
For the compound `O=C(CCc1nc(=S)[nH][nH]1)Nc1ccc(Cl)c(Cl)c1`, the result was inactive.
`O=c1oc2cc(O)ccc2c(O)c1Cc1c(O)c2ccc(O)cc2oc1=O`: the EC50 is more than 200 µM and the IC50 stood at 162 µM.
`C1CSCC2(COC2)CSCCSCC2(COC2)CS1`: the EC50 was more than 14.8 µM and the IC50 is more than 14.8 µM.
`CCOC(=O)Nc1nc2ccn(C)c2s1`: the EC50 was more than 200 µM and the IC50 is more than 200 µM.
Turning to `COc1cc2c(c(OC)c1OC)C(=O)[C@@H]1[C@H]2N1C(=O)NCCCl`, the EC50 was more than 200 µM and the IC50 is 45.7 µM.
With `Cc1cc(NS(=O)(=O)c2ccc(Nc3c4ccccc4nc4c(C(=O)O)cccc34)cc2)no1`, the EC50 is more than 200 µM and the IC50 is 178 µM.
For the compound `NC(=O)CNC(=O)C1CC(O)CN1C(=O)OCc1ccccc1` (stereo unspecified) (HELM PEPTIDE1{[O=C(OCc1ccccc1)[*:2]].[O=C(C1CC(O)CN1[*:1])[*:2]].G.[am]}$$$$V2.0), the EC50 was more than 200 µM and the IC50 was more than 200 µM.
In the case of `c1csc(-c2cc(-c3cccs3)c(-c3cccs3)s2)c1`, the EC50 was more than 200 µM and the IC50 amounted to 38.9 µM.
With `O=S(=O)(c1ccccc1)[C@H]1[C@@H]2O[C@@H]2C[C@@H]1O`, the EC50 was more than 1050 µM and the IC50 was 55 µM.
In the case of `CCCC[C@@H]1CCN2C[C@@H](O)[C@@H](O)[C@H]2[C@@H]1O`, the EC50 was more than 200 µM and the IC50 was more than 200 µM.
Take `C[C@@H]1C[C@@]2(O)[C@@H]3C[C@H](F)C4=CC(=O)CC[C@]4(C)[C@H]3[C@@H](O)C[C@]2(C)[C@@]1(O)C(=O)CO`: the EC50 was more than 200 µM and the IC50 was determined as 178 µM.
In the case of `Oc1ccc(-c2nc(-c3ccc(F)cc3)c(-c3ccc4ccccc4n3)[nH]2)cc1`, the EC50 was more than 200 µM and the IC50 amounted to 21.4 µM.
With `CC1(C)O[C@H]2[C@H](O)C[C@](O)(CO)C[C@H]2O1`, the outcome was inactive.
With `CC1=NN(C(=O)CC(=O)Nc2ccccc2)C(=O)C1N=Nc1ccc(C(=O)O)cc1` (stereo unspecified), the EC50 is more than 200 µM and the IC50 was found to be 58.9 µM.
For `c1scc2c1COCCOCCOCCOCc1cscc1COCCOCCOCCOC2`, the EC50 was more than 347 µM and the IC50 was more than 347 µM.
As for `C=C(c1ccc(OC)c(OC)c1)c1nccc2cc(OC)c(OC)cc12`, the EC50 is more than 74.1 µM and the IC50 is 12.6 µM.
For the compound `O=c1[nH]c(=O)n(C2C=CC(CO)O2)cc1C(OCC(F)(F)F)OCC(F)(F)F` (stereo unspecified), the EC50 is more than 141 µM and the IC50 was 72.4 µM.
Turning to `O=C(Cn1c(=O)oc2ccccc21)N(c1ccccc1)c1ccccc1`, the EC50 is more than 200 µM and the IC50 was more than 200 µM.
Turning to `CC1=Nc2nc(Cl)cn2C(=O)C1(Cl)Cl`, the EC50 is more than 200 µM and the IC50 came to 33.1 µM.
For the compound `CC(C)/C(Cl)=N/OC(=O)Nc1ccc(OC(F)(F)F)cc1`, the EC50 was more than 200 µM and the IC50 turned out to be 10.5 µM.
Regarding `COc1cc2c(cc1OC)Cc1cc(OC)c(OC)cc1Cc1cc(OC)c(OC)cc1C2`, the outcome was inactive.
For the compound `C/C(CCn1[nH]c(=O)ccc1=O)=N\Nc1ccc([N+](=O)[O-])cc1[N+](=O)[O-]`, the result was inactive and the IC50 stood at 20 µM.
Turning to `Cc1cc2c(cc1Cl)SSc1cc(Cl)c(C)cc1S(=O)(=O)Nc1nc(N)nn1C(O)n1nc(N)nc1NS2(=O)=O`, the EC50 was 89.1 µM and the IC50 is more than 100 µM.
On the same counts, the results for `Cn1ccc2c(c1=O)C(=O)OC2(C)C` are more than 200 µM and more than 200 µM.
As for `O=S(=O)(O)c1cc(N=Nc2ccc(/C=C/c3ccc(N=Nc4cc(S(=O)(=O)O)c5cccnc5c4O)cc3)cc2)c(O)c2ncccc12`, the EC50 was 3.98 µM and the IC50 was determined as 93.3 µM.
For `CC(=O)Oc1ccc2cc(-c3ccc(OC(C)=O)c(OC(C)=O)c3)c(=O)oc2c1`, the EC50 was more than 200 µM and the IC50 was 64.6 µM.
Consider `C[C@]12CCC(OS(=O)(=O)O)CC1=CCC1C2CC[C@@]2(C)C1CC[C@@H]2C(=O)O` (stereo partly specified), for which the EC50 was more than 427 µM and the 50% inhibitory concentration (IC50) is 417 µM.
Turning to `Cc1ccc(-n2cc(/C(N)=N/O)c3ccccc3c2=O)cc1`, the EC50 was more than 89.1 µM and the IC50 is more than 89.1 µM.
For `COc1ccc(N2C(=O)C3c4[nH]c5cccc(Cl)c5c4C4CCC(C(C)(C)C)CC4C3C2=O)cc1` (stereo unspecified), the EC50 was more than 200 µM.
For the compound `COc1cc(O)c2c(=O)oc3cc(O)cc(C)c3c2c1`, the EC50 is more than 34.7 µM and the IC50 is more than 34.7 µM.
As to `NC(=Nc1ccc(Br)cc1)/N=C(/N)Nc1cccc(S(=O)(=O)Nc2ncc(Cl)cn2)c1`, the EC50 was more than 200 µM and the IC50 was more than 200 µM.
As to `CN(C)/C=C/c1c2c(nc3ccccc13)C(=O)c1ccccc1C2=O`, the EC50 was more than 100 µM and the IC50 was 2.24 µM.
As for `C/C(CC(O)(C(F)(F)F)C(F)(F)F)=N/Nc1ccc([N+](=O)[O-])cc1[N+](=O)[O-]`, the EC50 was more than 200 µM and the IC50 is 1.41 µM.
On to `COc1ccc2ccccc2c1Br`, for which the EC50 is more than 200 µM and the IC50 was more than 200 µM.
